Test results published in US20250145606A1 (Arcus Biosciences, Inc., priority 2023, published 2025).

How the values were obtained:
[1] = system: Phospho-KIT (Y703) in M07e cells; assay: Phospho-KIT (Y703) cellular assay in M07e cells; format: cell-based; details: M-07e; Phospho-KIT (Y703), M07e cells; read-out: M07e Cell IC50
Procedure: Phospho-KIT (Y703) Cellular Assay in M07e Cells
The day prior to assay, M07e cells (DSMZ, catalog #ACC 104) were serum starved. Cells were centrifuged and cell pellet resuspended in OptiMEM (Gibco, catalog #31985062) to a density of 1×10^6-2.5×10^6 cells per mL. Cells were then incubated overnight at 5% CO2 and 37° C. in an appropriately sized flask. On the day of the experiment, an 11 point, half log titration of test compound was pre-dispensed into 96-well round bottom polypropylene plates (Corning, catalog #3365). The serum starved M07e cells were centrifuged and resuspended to a cell density of 1×10^6 cells per mL with DPBS (Gibco, catalog #14190-144). Live/Dead Green Fixable viability dye (Invitrogen, catalog #L34970) was added as 1 μL/1 mL of cell suspension. Cells were then incubated in the dark at 4° C. for 30 min. Cells were washed by centrifugation and resuspension with DPBS+0.5% BSA (Gemini Bio Products, catalog #700110/100, 30% BSA solution). Cells were resuspended, separated into two equal volumes and again centrifuged. Cell pellets were resuspended with OptiMEM™ to a cell density of 1×10^6 cells per mL. Cells were then added to the appropriate compound plate at 100,000 cells per well in 100 μL and mixed. Plates were incubated at 5% CO2 and 37° C. for 50 min. Stem Cell Factor, SCF (R&D Systems, #255-SC/CF) was diluted in OptiMEM to 1 μg/mL and added to all wells as 10 μL for a final concentration of 90.9 ng/mL. Plates were incubated at 5% CO2 and 37° C. for 10 min. Incubation was stopped by addition of 110 μL 4% paraformaldehyde solution in PBS (Life Technologies, catalog #J19943.K2). Plates were incubated at rt for at least 15 min. Plates were then centrifuged and supernatant removed by flicking. Cells were washed once by resuspension in 200 μL DPBS+0.5% BSA, centrifuged, and supernatant removed by flicking. Cells were resuspended in 100 μL 1X Permeabilization buffer (Invitrogen, catalog #88882400) and plates incubated at rt for 30 min. Plates were centrifuged, supernatant removed by flicking, and cells resuspended in 50 μL primary antibody, anti-phospho-c-KIT (Tyr703) (Cell Signaling, catalog #3073), diluted to 1 μg/mL with permeabilization buffer. Plates were incubated at rt for 1 h. Plates were centrifuged, supernatant removed, and cells resuspended with 200 μL DPBS+0.5% BSA. Plates were again centrifuged, supernatant removed by flicking, and cells resuspended in 100 μL secondary antibody, goat anti-rabbit AlexaFluor647 (AF647) (Invitrogen, catalog #A21244) diluted to 1 μg/mL with DPBS+0.5% BSA. Plates were incubated at rt for 30 min. followed by centrifugation, supernatant removal, and cell resuspension with 200 μL DPBS+0.5% BSA. Cells were washed again by centrifugation, supernatant removal, and cell resuspension with 200 μL DPBS+0.5% BSA. Samples were then read by flow cytometry. The Forward: Side scatter plot was gated and that population was gated for live cells based on the Live/Dead Green staining. The geometric mean of AF647 of the live cell population was recorded. Percentage maximum activity in each test well was calculated based on DMSO (100% activity) and positive control treated cell wells (0% activity). The potencies (IC50 values) of test compounds were determined using a standard 4-parameter non-linear regression fit.

[2] = molecular target: c-Kit (Homo sapiens (Human), UniProt P10721); assay: Inhibition of c-Kit kinase activity (HTRF KinEASE-TK); format: biochemical; details: biochemical, HTRF KinEASE-TK
Chain of c-Kit (P10721 26-976): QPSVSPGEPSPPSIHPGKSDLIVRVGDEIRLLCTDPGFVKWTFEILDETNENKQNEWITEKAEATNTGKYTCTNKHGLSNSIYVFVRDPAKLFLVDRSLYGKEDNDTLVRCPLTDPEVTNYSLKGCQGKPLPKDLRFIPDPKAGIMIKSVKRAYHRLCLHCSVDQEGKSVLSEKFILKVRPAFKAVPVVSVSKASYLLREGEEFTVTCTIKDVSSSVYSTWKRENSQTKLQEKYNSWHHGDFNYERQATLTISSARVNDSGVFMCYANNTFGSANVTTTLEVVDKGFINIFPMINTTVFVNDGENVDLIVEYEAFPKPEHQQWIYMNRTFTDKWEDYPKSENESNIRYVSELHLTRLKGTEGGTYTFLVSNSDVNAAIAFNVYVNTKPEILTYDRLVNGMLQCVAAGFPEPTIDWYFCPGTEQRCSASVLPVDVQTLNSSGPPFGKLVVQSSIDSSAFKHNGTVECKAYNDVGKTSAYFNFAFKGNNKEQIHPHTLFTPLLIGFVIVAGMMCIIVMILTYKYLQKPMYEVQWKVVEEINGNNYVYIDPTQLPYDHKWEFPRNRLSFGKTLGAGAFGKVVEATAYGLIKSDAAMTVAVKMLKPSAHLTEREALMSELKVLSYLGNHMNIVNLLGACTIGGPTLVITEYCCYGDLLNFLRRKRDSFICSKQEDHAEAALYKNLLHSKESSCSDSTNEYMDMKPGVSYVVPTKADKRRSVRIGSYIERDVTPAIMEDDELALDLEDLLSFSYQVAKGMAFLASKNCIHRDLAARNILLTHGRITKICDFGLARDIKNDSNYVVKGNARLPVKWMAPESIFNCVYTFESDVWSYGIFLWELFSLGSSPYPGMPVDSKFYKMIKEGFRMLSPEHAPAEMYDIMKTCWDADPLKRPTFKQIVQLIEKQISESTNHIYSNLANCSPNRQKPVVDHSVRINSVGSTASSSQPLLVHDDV
Procedure, shortened: (§1)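 Human kinases were preincubated 1 h at rt with a 22-point 1:2 compound titration, then run 120 min at rt with biotinylated TK peptide and ATP (2× mix: c-Kit 16 μM, PDGFRα 1 μM, PDGFRβ 40 μM, CSF1R 20 μM). Phosphopeptide was read by HTRF TR-FRET (665/620 nm), and IC50s came from 4-parameter fits.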

[3] = molecular target: CSF1R (Homo sapiens (Human), UniProt P07333); assay: Inhibition of CSF1R kinase activity (HTRF KinEASE-TK); details: biochemical, HTRF KinEASE-TK
Chain of CSF1R (P07333 20-972): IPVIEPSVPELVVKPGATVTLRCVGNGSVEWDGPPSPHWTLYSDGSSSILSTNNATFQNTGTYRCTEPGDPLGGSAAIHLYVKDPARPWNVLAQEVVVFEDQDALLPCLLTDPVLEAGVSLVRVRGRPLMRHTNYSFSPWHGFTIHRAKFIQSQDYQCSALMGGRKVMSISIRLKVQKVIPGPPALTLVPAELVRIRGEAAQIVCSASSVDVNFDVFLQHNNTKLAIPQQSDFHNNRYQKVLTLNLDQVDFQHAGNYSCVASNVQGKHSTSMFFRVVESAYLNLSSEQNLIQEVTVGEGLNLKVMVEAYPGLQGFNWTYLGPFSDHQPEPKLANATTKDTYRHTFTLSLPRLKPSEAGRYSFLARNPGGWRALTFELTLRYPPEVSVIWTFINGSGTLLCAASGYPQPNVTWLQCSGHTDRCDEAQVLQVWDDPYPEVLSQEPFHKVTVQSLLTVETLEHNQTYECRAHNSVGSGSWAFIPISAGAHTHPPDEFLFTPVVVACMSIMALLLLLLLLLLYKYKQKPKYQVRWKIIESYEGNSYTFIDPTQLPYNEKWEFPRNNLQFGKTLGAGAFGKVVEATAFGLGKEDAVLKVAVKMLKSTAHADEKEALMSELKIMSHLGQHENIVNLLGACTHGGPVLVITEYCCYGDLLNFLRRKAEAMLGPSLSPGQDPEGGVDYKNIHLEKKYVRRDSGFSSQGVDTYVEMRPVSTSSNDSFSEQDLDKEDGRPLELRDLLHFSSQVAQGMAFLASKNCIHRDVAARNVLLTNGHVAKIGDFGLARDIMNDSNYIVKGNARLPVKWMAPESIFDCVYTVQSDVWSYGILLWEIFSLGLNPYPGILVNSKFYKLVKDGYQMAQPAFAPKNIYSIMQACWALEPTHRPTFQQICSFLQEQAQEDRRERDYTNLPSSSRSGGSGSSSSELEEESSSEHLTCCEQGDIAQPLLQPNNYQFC
Procedure, shortened: as §1

[4] = molecular target: PDGFRβ (Homo sapiens (Human), UniProt P09619); assay: Inhibition of PDGFRβ kinase activity (HTRF KinEASE-TK); details: biochemical, HTRF KinEASE-TK
Chain of PDGFRβ (P09619 33-1106): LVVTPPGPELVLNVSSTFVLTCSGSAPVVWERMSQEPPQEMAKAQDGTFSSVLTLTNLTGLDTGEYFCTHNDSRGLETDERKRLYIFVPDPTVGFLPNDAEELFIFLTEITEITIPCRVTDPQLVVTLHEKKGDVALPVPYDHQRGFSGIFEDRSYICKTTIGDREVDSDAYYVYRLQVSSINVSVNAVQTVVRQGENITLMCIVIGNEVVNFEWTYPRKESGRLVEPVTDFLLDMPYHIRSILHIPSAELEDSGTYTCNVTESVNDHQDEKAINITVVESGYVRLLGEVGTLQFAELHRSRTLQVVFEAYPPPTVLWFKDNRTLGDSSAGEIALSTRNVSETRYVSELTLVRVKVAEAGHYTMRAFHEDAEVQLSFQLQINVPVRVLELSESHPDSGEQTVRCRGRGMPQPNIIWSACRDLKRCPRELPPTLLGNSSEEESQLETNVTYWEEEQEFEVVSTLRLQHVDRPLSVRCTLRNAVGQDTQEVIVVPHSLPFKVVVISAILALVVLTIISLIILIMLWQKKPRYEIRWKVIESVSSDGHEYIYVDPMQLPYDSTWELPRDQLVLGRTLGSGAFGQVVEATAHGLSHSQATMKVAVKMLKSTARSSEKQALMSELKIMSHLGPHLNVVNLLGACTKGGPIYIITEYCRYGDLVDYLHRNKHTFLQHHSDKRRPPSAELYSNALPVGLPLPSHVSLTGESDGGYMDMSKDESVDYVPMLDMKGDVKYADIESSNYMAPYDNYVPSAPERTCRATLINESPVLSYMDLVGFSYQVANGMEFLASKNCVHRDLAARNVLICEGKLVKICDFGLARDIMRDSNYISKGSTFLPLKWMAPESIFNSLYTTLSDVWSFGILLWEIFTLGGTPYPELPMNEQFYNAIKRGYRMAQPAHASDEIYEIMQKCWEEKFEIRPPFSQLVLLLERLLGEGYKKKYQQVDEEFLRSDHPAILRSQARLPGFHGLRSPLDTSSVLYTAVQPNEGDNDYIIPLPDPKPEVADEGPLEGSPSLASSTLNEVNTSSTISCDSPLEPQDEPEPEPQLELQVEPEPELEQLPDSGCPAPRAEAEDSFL
Procedure, shortened: as §1

[5] = molecular target: PDGFRα (Homo sapiens (Human), UniProt P16234); assay: Inhibition of PDGFRα kinase activity (HTRF KinEASE-TK); details: biochemical, HTRF KinEASE-TK
Chain of PDGFRα (P16234 24-1089): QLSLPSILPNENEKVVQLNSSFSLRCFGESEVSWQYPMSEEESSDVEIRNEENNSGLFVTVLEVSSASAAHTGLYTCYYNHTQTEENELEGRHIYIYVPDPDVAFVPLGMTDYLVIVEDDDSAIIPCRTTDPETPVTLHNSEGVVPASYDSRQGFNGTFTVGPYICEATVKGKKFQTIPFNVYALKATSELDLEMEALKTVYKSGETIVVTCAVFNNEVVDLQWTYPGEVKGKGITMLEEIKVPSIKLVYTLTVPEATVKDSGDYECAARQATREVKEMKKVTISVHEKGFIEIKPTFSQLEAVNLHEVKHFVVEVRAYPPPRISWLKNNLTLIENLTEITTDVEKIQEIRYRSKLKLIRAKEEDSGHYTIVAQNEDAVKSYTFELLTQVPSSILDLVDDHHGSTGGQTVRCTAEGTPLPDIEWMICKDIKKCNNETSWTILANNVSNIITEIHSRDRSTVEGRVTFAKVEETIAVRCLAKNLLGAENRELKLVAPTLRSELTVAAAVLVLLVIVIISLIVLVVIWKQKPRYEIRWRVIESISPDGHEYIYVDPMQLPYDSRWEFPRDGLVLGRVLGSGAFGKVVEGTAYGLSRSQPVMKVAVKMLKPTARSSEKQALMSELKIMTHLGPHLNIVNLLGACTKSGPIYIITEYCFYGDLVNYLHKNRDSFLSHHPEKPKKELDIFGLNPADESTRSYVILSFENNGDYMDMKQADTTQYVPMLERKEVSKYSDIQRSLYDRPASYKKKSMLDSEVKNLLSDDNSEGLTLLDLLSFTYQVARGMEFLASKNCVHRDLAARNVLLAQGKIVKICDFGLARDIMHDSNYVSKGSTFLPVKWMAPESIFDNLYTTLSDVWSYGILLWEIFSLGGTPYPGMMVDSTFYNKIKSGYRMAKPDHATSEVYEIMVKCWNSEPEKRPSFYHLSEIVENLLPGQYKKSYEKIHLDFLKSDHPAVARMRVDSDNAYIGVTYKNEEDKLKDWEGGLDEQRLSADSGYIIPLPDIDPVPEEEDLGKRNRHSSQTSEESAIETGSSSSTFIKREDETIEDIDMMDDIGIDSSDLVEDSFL
Procedure, shortened: as §1

Row | Structure (SMILES) | IC50 [1] [nM] | IC50 [2] [nM] | IC50 [3] [nM] | IC50 [4] [nM] | IC50 [5] [nM]
1 | Cc1ncc(C(=O)Nc2cc(C(=O)Nc3cc(CC4CC4)ncn3)c(F)cc2C)s1 [Example 50, N-(5-((6-(cyclopropylmethyl)pyrimidin-4-yl)carbamoyl)-4-fluoro-2-methylphenyl)-2-methylthiazole-5-carboxamide] | < 100 | < 100 | 100 to 1000 | 100 to 1000 | 100 to 1000
2 | Cc1ncc(C(=O)Nc2cc(C(=O)Nc3cncc(C4CC4)c3)c(F)cc2C)s1 [Example 53, N-[5-[(5-cyclopropylpyridin-3-yl)carbamoyl]-4-fluoro-2-methylphenyl]-2-methyl-1,3-thiazole-5-carboxamide] | < 100 | < 100 | > 1000 |  | 
3 | Cc1ncc(C(=O)Nc2cc(C(=O)Nc3cccc(C(F)(F)F)n3)c(F)cc2C)s1 [Example 55, N-[4-fluoro-2-methyl-5-[[6-(trifluoromethyl)pyridin-2-yl]carbamoyl]phenyl]-2-methyl-1,3-thiazole-5-carboxamide] | < 100 | < 100 | > 1000 |  | 
4 | Cc1ncc(C(=O)Nc2cc(C(=O)Nc3cnc(C(F)F)cn3)c(F)cc2C)s1 [Example 56, N-[5-[[5-(difluoromethyl)pyrazin-2-yl]carbamoyl]-4-fluoro-2-methylphenyl]-2-methyl-1,3-thiazole-5-carboxamide] | 100 to 1000 | 100 to 1000 | > 1000 |  | 
5 | Cc1ncc(C(=O)Nc2cc(C(=O)Nc3cncc(C(F)F)c3)c(F)cc2C)s1 [Example 76, N-[5-[[5-(difluoromethyl)pyridin-3-yl]carbamoyl]-4-fluoro-2-methylphenyl]-2-methyl-1,3-thiazole-5-carboxamide] | < 100 | < 100 | > 1000 |  | 
6 | Cc1ncc(C(=O)Nc2cc(C(=O)Nc3cncc(C(F)(F)F)c3)c(F)cc2C)s1 [Example 77, N-[4-fluoro-2-methyl-5-[[5-(trifluoromethyl)pyridin-3-yl]carbamoyl]phenyl]-2-methyl-1,3-thiazole-5-carboxamide] | < 100 | < 100 | > 1000 |  | 
7 | Cc1ncc(C(=O)Nc2cc(C(=O)Nc3cncc(CC(F)(F)F)c3)c(F)cc2C)s1 [Example 81, N-[4-fluoro-2-methyl-5-[[5-(2,2,2-trifluoroethyl)pyridin-3-yl]carbamoyl]phenyl]-2-methyl-1,3-thiazole-5-carboxamide] | < 100 | < 100 | > 1000 |  | 
8 | Cc1ncc(C(=O)Nc2cc(C(=O)Nc3ccc(CC(F)(F)F)nc3)c(F)cc2C)s1 [Example 98, N-[4-fluoro-2-methyl-5-[[6-(2,2,2-trifluoroethyl)pyridin-3-yl]carbamoyl]phenyl]-2-methyl-1,3-thiazole-5-carboxamide] | < 100 | < 100 | > 1000 |  | 
9 | Nc1ncc(C(=O)Nc2cc(C(=O)Nc3ccc(CC(F)(F)F)cn3)c(F)cc2F)s1 [Example 221, 2-Amino-N-[2,4-difluoro-5-[[5-(2,2,2-trifluoroethyl)pyridin-2-yl]carbamoyl]phenyl]-1,3-thiazole-5-carboxamide] | < 100 | < 100 | 100 to 1000 |  | 
10 | Cc1cc(F)c(C(=O)Nc2cncc(C(F)F)c2)cc1NC(=O)c1cnc(N)s1 [Example 246, 2-Amino-N-[5-[[5-(difluoromethyl)pyridin-3-yl]carbamoyl]-4-fluoro-2-methylphenyl]-1,3-thiazole-5-carboxamide] | < 100 | < 100 | < 100 |  | 
11 | Cc1cc(F)c(C(=O)Nc2cncc(C(F)(F)F)c2)cc1NC(=O)c1cnc(N)s1 [Example 249, 2-Amino-N-[4-fluoro-2-methyl-5-[[5-(trifluoromethyl)pyridin-3-yl]carbamoyl]phenyl]-1,3-thiazole-5-carboxamide] | < 100 | < 100 | < 100 |  | 
12 | Cc1cc(F)c(C(=O)Nc2cccnc2C)cc1NC(=O)c1cnc(N)s1 [Example 250, 2-Amino-N-[4-fluoro-2-methyl-5-[(2-methylpyridin-3-yl)carbamoyl]phenyl]-1,3-thiazole-5-carboxamide] | 100 to 1000 | 100 to 1000 | > 1000 |  | 

Now from value to compound:

Row | IC50 [1] [nM] | IC50 [2] [nM] | IC50 [3] [nM] | IC50 [4] [nM] | IC50 [5] [nM] | Structure (SMILES)
13 | < 100 | < 100 | > 1000 | 100 to 1000 | > 1000 | Cc1ncc(C(=O)Nc2cc(C(=O)Nc3ccnc(C(F)(F)F)c3)c(F)cc2C)s1 [Example 25, N-[4-Fluoro-2-methyl-5-[[2-(trifluoromethyl)pyridin-4-yl]carbamoyl]phenyl]-2-methyl-1,3-thiazole-5-carboxamide]
14 | < 100 | < 100 | > 1000 | > 1000 | > 1000 | Cc1ncc(C(=O)Nc2cc(C(=O)Nc3cnc(OC4CC(F)(F)C4)cn3)c(F)cc2C)s1 [Example 32, N-[5-[[5-(3,3-difluorocyclobutyl)oxypyrazin-2-yl]carbamoyl]-4-fluoro-2-methylphenyl]-2-methyl-1,3-thiazole-5-carboxamide]
15 | < 100 | < 100 | > 1000 |  |  | Cc1ncc(C(=O)Nc2cc(C(=O)Nc3cncc(CC4CC4)n3)c(F)cc2C)s1 [Example 34, N-[5-[[6-(cyclopropylmethyl)pyrazin-2-yl]carbamoyl]-4-fluoro-2-methylphenyl]-2-methyl-1,3-thiazole-5-carboxamide]
16 | < 100 | < 100 | > 1000 | > 1000 | > 1000 | Cc1ncc(C(=O)Nc2cc(C(=O)Nc3ccc(OCC(F)F)cn3)c(F)cc2C)s1 [Example 36, N-[5-[[5-(2,2-difluoroethoxy)pyridin-2-yl]carbamoyl]-4-fluoro-2-methylphenyl]-2-methyl-1,3-thiazole-5-carboxamide]
17 | < 100 | < 100 | > 1000 | > 1000 | > 1000 | Cc1ncc(C(=O)Nc2cc(C(=O)Nc3ccc(OC(F)(F)F)cn3)c(F)cc2C)s1 [Example 39, N-[4-fluoro-2-methyl-5-[[5-(trifluoromethoxy)pyridin-2-yl]carbamoyl]phenyl]-2-methyl-1,3-thiazole-5-carboxamide]
18 | < 100 | < 100 | > 1000 | > 1000 | > 1000 | Cc1ncc(C(=O)Nc2cc(C(=O)Nc3ccc(OC(C)C)cn3)c(F)cc2Cl)s1 [Example 48, N-[2-chloro-4-fluoro-5-[(5-propan-2-yloxypyridin-2-yl)carbamoyl]phenyl]-2-methyl-1,3-thiazole-5-carboxamide]
19 | < 100 | < 100 | > 1000 | > 1000 | > 1000 | Cc1ncc(C(=O)Nc2cc(C(=O)Nc3ccc(OC4CC4)cn3)c(F)cc2Cl)s1 [Example 49, N-[2-chloro-5-[(5-cyclopropyloxypyridin-2-yl)carbamoyl]-4-fluorophenyl]-2-methyl-1,3-thiazole-5-carboxamide]
